Results published in patent publication US20230382925A1, “MODULATORS OF CYSTIC FIBROSIS TRANSMEMBRANE CONDUCTANCE REGULATOR” (VERTEX PHARMACEUTICALS INCORPORATED, priority 2020, published 2023).
“And” between values parts separate entries of the source, which are not always exact repeats. Identical values can stand only once. Like-named read-outs stand apart in the source and are kept apart here.

Legend:
[1] = amide bond, 13-membered ring, DMF
[2] = amide bond, 13-membered ring, DMF; remark: listed apart in the source
[3] = molecular target: T1, CFTR (Homo sapiens, UniProt P13569); test: Membrane Potential Dye, Enteroid Assay A; format: cell-based; conditions: for EC50: read-out: Ent. A EC50
Summary of the method: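 Primary human intestinal enteroid cells exposed to compound for 18–24 hours at 37 °C, then loaded 25 min with methyl oxonol membrane potential dye plus CaCC inhibitors. Chloride transport triggered in chloride-free buffer with 10 μM forskolin, 100 μM IBMX and 300 nM Compound III, fluorescence read 15 min; % Activity relative to a triple-combination corrector/potentiator control.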

[4] = molecular target: T1, CFTR; test: Membrane Potential Dye, Enteroid Assay B; format: cell-based
Summary of the method: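 Human intestinal enteroid cells exposed to compound 18-24 h at 37 °C, then loaded with methyl oxonol membrane-potential dye plus CaCC blockers. Chloride transport triggered in chloride-free buffer with 10 μM forskolin, 100 μM IBMX, 300 nM Compound III; fluorescence read 15 min, expressed as % of triple-corrector/potentiator combination control.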

T1 sequence (P13569 with tags, fused parts or gaps DEL508-508): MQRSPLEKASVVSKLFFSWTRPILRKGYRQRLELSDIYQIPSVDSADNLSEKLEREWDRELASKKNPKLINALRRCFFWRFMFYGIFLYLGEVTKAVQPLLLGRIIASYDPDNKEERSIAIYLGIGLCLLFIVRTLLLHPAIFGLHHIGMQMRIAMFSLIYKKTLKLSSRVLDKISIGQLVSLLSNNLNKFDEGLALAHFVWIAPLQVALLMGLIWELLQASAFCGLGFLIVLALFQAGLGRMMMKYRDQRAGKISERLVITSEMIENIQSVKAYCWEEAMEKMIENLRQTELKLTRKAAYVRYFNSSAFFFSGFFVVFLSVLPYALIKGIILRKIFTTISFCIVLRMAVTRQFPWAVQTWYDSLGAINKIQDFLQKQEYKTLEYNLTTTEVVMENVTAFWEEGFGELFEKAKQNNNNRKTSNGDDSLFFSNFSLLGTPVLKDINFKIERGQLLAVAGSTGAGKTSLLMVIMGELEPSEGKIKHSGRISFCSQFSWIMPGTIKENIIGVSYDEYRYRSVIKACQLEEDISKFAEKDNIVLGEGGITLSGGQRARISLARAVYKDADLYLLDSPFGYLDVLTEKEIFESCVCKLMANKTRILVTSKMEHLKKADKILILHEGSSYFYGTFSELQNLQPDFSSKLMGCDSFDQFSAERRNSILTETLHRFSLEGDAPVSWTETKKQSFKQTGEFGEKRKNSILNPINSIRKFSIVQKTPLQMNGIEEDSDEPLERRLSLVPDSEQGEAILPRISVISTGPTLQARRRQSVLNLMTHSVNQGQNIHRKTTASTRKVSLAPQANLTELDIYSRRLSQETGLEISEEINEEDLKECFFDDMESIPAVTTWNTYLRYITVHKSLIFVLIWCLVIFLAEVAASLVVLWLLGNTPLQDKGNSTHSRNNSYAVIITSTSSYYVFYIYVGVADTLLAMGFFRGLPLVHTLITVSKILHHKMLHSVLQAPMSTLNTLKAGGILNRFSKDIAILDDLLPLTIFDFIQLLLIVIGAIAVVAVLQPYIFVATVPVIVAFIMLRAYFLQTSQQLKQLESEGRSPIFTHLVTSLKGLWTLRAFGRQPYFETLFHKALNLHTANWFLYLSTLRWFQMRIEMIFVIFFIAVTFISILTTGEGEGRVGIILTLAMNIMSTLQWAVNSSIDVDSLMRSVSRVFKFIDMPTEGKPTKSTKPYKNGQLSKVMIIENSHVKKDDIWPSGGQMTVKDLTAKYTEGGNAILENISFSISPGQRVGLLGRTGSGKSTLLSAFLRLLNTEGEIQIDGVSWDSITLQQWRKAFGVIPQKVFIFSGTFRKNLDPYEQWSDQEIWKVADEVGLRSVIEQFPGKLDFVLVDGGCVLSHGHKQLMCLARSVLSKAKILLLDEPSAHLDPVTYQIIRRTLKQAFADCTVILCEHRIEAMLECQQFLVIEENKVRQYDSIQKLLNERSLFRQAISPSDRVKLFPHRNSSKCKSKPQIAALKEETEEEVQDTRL

Work on CC(C)C[C@@H]1COc2cc(Cl)nc(n2)NS(=O)(=O)c2cccc(c2)C(=O)N1C1CC2(CC2)C1 yielded a ring closure, isolated yield ([1]; from CC(C)C[C@H](COc1cc(Cl)nc(NS(=O)(=O)c2cccc(C(=O)O)c2)n1)NC1CC2(CC2)C1, HATU/DIEA, 16.5 mM, 17.0 h) of 58%.
CC(C)C[C@@H]1COc2cc(Cl)nc(n2)NS(=O)(=O)c2cccc(c2)C(=O)N1C1CC2(CCN(C(=O)OC(C)(C)C)CC2)C1 showed a ring closure, isolated yield ([1]; from CC(C)C[C@H](COc1cc(Cl)nc(NS(=O)(=O)c2cccc(C(=O)O)c2)n1)NC1CC2(CCN(C(=O)OC(C)(C)C)CC2)C1, HATU/TEA, 154.9 mM, 25.0 °C, 16.0 h) of 41%.
In the case of COC(=O)C1CC(N2C(=O)c3cccc(c3)S(=O)(=O)Nc3nc(cc(-c4c(C)cccc4C)n3)OC[C@H]2CC(C)(C)C)C1 (stereo partly shown), the ring closure, isolated yield ([1]; from COC(=O)C1CC(N[C@@H](COc2cc(-c3c(C)cccc3C)nc(NS(=O)(=O)c3cccc(C(=O)O)c3)n2)CC(C)(C)C)C1, COMU/DIEA, 25.2 mM, 25.0 °C, 21.0 h) is reported as 25% and 34%.
With COC(=O)C1CC2(C1)CC(N1C(=O)c3cccc(c3)S(=O)(=O)Nc3nc(cc(-c4c(C)cccc4C)n3)OC[C@H]1CC(C)(C)C)C2 (stereo partly shown) the ring closure, isolated yield ([1]; from COC(=O)C1CC2(CC(N[C@@H](COc3cc(-c4c(C)cccc4C)nc(NS(=O)(=O)c4cccc(C(=O)O)c4)n3)CC(C)(C)C)C2)C1, COMU/DIEA, 16.0 h, 2 steps) was 51%.
Work on COC(=O)C1CC2(C1)CC(N1C(=O)c3cccc(c3)S(=O)(=O)Nc3nc(cc(-c4c(C)cccc4C)n3)OC[C@H]1CCC(C)C)C2 (stereo partly shown) yielded a ring closure, isolated yield ([1]; HATU/DIEA, 25.0 °C, 2 steps) of 20%.
Work on COC(=O)CC1CC(N2C(=O)c3cccc(c3)S(=O)(=O)Nc3nc(cc(-c4c(C)cccc4C)n3)OC[C@H]2CC(C)(C)C)C1 (stereo partly shown) yielded a ring closure, isolated yield ([1]; from COC(=O)CC1CC(N[C@@H](COc2cc(-c3c(C)cccc3C)nc(NS(=O)(=O)c3cccc(C(=O)O)c3)n2)CC(C)(C)C)C1, COMU/DIEA, 47.0 mM, 18.0 h) of 79%.
In the case of Cc1cccc(C)c1-c1cc2nc(n1)NS(=O)(=O)c1cccc(c1)C(=O)N(C1CC3(CC3)C1)[C@H](CC1CCCCC1)[C@@H](C1CC1)O2 [Compound 1, (10R,11R)-11-(Cyclohexylmethyl)-10-cyclopropyl-6-(2,6-dimethylphenyl)-2,2-dioxo-12-spiro[2.3]hexan-5-yl-9-oxa-2λ^6-thia-3,5,12,19-tetrazatricyclo[12.3.1.14,8]nonadeca-1(18),4(19),5,7,14,16-hexaen-13-one], the ring closure, yield after HPLC ([2]; from Cc1cccc(C)c1-c1cc(O[C@H](C2CC2)[C@@H](CC2CCCCC2)NC2CC3(CC3)C2)nc(NS(=O)(=O)c2cccc(C(=O)O)c2)n1, COMU/TEA, 10.8 mM, 25.0 °C, 1.0 h) is reported as 31%, the “Ent. A Max Activity (%)” value [3] is reported as “+++ (+++ is >60%)” and the EC50 [3] is reported as less than 1000 nM.
With Cc1cccc(C)c1-c1cc2nc(n1)NS(=O)(=O)c1cccc(c1)C(=O)N(C1CC3(CC3)C1)[C@H](CCC(C)C)CO2 [Compound 3, (11R)-6-(2,6-Dimethylphenyl)-11-isopentyl-2,2-dioxo-12-spiro[2.3]hexan-5-yl-9-oxa-2λ^6-thia-3,5,12,19-tetrazatricyclo[12.3.1.14,8]nonadeca-1(18),4(19),5,7,14,16-hexaen-13-one] the ring closure, yield after HPLC ([2]; from Cc1cccc(C)c1-c1cc(OC[C@@H](CCC(C)C)NC2CC3(CC3)C2)nc(NS(=O)(=O)c2cccc(C(=O)O)c2)n1, HATU/DIEA, 25.0 °C, 3.0 h, 2 steps) was 8%, the “Ent. A Max Activity (%)” value [3] was “++ (++ is 30-60%)” and the EC50 [3] was less than 1000 nM.
In the case of Cc1cccc(C)c1-c1cc2nc(n1)NS(=O)(=O)c1cccc(c1)C(=O)N(C1CC3(CCN(CC(F)(F)F)CC3)C1)[C@H](CC(C)C)CO2 [Compound 18, (11R)-6-(2,6-dimethylphenyl)-11-isobutyl-2,2-dioxo-12-[7-(2,2,2-trifluoroethyl)-7-azaspiro[3.5]nonan-2-yl]-9-oxa-2λ^6-thia-3,5,12,19-tetrazatricyclo[12.3.1.14,8]nonadeca-1(18),4(19),5,7,14,16-hexaen-13-one], the ring closure, yield after HPLC ([2]; from Cc1cccc(C)c1-c1cc(OC[C@@H](CC(C)C)NC2CC3(CCN(CC(F)(F)F)CC3)C2)nc(NS(=O)(=O)c2cccc(C(=O)O)c2)n1, HATU/DIEA, 25.0 °C, 2.0 h, 2 steps) is reported as 17%, the “Ent. A Max Activity (%)” value [3] is reported as “+++ (+++ is >60%)” and the EC50 [3] is reported as less than 1000 nM. For the same compound, the “Ent. B Max Activity (%)” value [4] was “+++ (+++ is >60%)” and the EC50 ([4]; read-out: Ent. B EC50) was less than 1000 nM.
In the case of Cc1cccc(C)c1-c1cc2nc(n1)NS(=O)(=O)c1cccc(c1)C(=O)N(C1CC(C)(C)C1)[C@H](CC(C)C)CO2 [Compound 28, (11R)-12-(3,3-Dimethylcyclobutyl)-6-(2,6-dimethylphenyl)-11-isobutyl-2,2-dioxo-9-oxa-2λ^6-thia-3,5,12,19-tetrazatricyclo[12.3.1.14,8]nonadeca-1(18),4(19),5,7,14,16-hexaen-13-one], the ring closure, yield after HPLC ([2]; from Cc1cccc(C)c1-c1cc(OC[C@@H](CC(C)C)NC2CC(C)(C)C2)nc(NS(=O)(=O)c2cccc(C(=O)O)c2)n1, HATU/DIEA, 18.9 mM, 25.0 °C, 2.0 h) is reported as 60%, the “Ent. A Max Activity (%)” value [3] is reported as “+++ (+++ is >60%)” and the EC50 [3] is reported as less than 1000 nM.
With Cc1cccc(C)c1-c1cc2nc(n1)NS(=O)(=O)c1cccc(c1)C(=O)N(C1CC3(CCOCC3)C1)[C@H](CC(C)C)CO2 [Compound 31, (11R)-6-(2,6-Dimethylphenyl)-11-isobutyl-12-(7-oxaspiro[3.5]nonan-2-yl)-2,2-dioxo-9-oxa-2λ^6-thia-3,5,12,19-tetrazatricyclo[12.3.1.14,8]nonadeca-1(18),4(19),5,7,14,16-hexaen-13-one] the ring closure, yield after HPLC ([2]; from Cc1cccc(C)c1-c1cc(OC[C@@H](CC(C)C)NC2CC3(CCOCC3)C2)nc(NS(=O)(=O)c2cccc(C(=O)O)c2)n1, HATU/DIEA, 25.0 °C, 2.0 h, 2 steps) was 28%, the “Ent. A Max Activity (%)” value [3] was “+++ (+++ is >60%)” and the EC50 [3] was less than 1000 nM.
In the case of Cc1cccc(C)c1-c1cc2nc(n1)NS(=O)(=O)c1cccc(c1)C(=O)N(C1CC3(CCC3)C1)[C@H](CC(C)C)CO2 [Compound 32, (11R)-6-(2,6-dimethylphenyl)-11-isobutyl-2,2-dioxo-12-spiro[3.3]heptan-2-yl-9-oxa-2λ^6-thia-3,5,12,19-tetrazatricyclo[12.3.1.14,8]nonadeca-1(18),4(19),5,7,14,16-hexaen-13-one], the ring closure, yield after HPLC ([2]; from Cc1cccc(C)c1-c1cc(OC[C@@H](CC(C)C)NC2CC3(CCC3)C2)nc(NS(=O)(=O)c2cccc(C(=O)O)c2)n1, HATU/DIEA, 25.0 °C, 2.0 h, 2 steps) is reported as 44%, the “Ent. A Max Activity (%)” value [3] is reported as “++ (++ is 30-60%)” and the EC50 [3] is reported as less than 1000 nM.
For Cc1cccc(C)c1-c1cc2nc(n1)NS(=O)(=O)c1cccc(c1)C(=O)N(C1CC3(CC3)C1)[C@H](C)CO2 [Compound 126, (11R)-6-(2,6-dimethylphenyl)-11-methyl-12-{spiro[2.3]hexan-5-yl}-9-oxa-2λ^6-thia-3,5,12,19-tetraazatricyclo[12.3.1.14,8]nonadeca-1(17),4(19),5,7,14(18),15-hexaene-2,2,13-trione], the ring closure, yield after HPLC ([2]; from Cc1cccc(C)c1-c1cc(OC[C@@H](C)NC2CC3(CC3)C2)nc(NS(=O)(=O)c2cccc(C(=O)O)c2)n1, HATU/TEA, 20.9 mM, 96.0 h) was 47%, the “Ent. A Max Activity (%)” value [3] was “++ (++ is 30-60%)” and the EC50 [3] was 1000 to 3000 nM.
In the case of Cc1cccc(C)c1-c1cc2nc(n1)NS(=O)(=O)c1cccc(c1)C(=O)N(C1CC3(CC3)C1)[C@H](CC(C)(C)C)CO2 [Compound 182, (11R)-6-(2,6-Dimethylphenyl)-11-(2,2-dimethylpropyl)-2,2-dioxo-12-spiro[2.3]hexan-5-yl-9-oxa-2λ^6-thia-3,5,12,19-tetrazatricyclo[12.3.1.14,8]nonadeca-1(18),4(19),5,7,14,16-hexaen-13-one], the ring closure, yield after HPLC ([2]; from Cc1cccc(C)c1-c1cc(OC[C@@H](CC(C)(C)C)NC2CC3(CC3)C2)nc(NS(=O)(=O)c2cccc(C(=O)O)c2)n1, HATU/DIEA, 26.5 mM, 6.0 h) is reported as 54%, the “Ent. A Max Activity (%)” value [3] is reported as “+++ (+++ is >60%)” and the EC50 [3] is reported as less than 1000 nM. The “Ent. B Max Activity (%)” value [4] was “+++ (+++ is >60%)” and the EC50 ([4]; read-out: Ent. B EC50) was less than 1000 nM.
For Cc1cccc(C)c1-c1cc2nc(n1)NS(=O)(=O)c1cccc(c1)C(=O)N(c1cnn(C(C)(C)C)c1)[C@H](CC(C)(C)C)CO2 [Compound 184, (11R)-12-(1-tert-Butylpyrazol-4-yl)-6-(2,6-dimethylphenyl)-11-(2,2-dimethylpropyl)-2,2-dioxo-9-oxa-2λ^6-thia-3,5,12,19-tetrazatricyclo[12.3.1.14,8]nonadeca-1(18),4(19),5,7,14,16-hexaen-13-one], the ring closure, yield after HPLC ([2]; from Cc1cccc(C)c1-c1cc(OC[C@@H](CC(C)(C)C)Nc2cnn(C(C)(C)C)c2)nc(NS(=O)(=O)c2cccc(C(=O)O)c2)n1, CDMT/NMM, 24.9 mM, 48.0 h, 2 steps) was 7%, the “Ent. B Max Activity (%)” value ([4]; Table 10) was “+++ (+++ is >60%)” and the EC50 ([4]; Table 10, read-out: Ent. B EC50) was less than 1000 nM.
For Cc1cccc(C)c1-c1cc2cc(n1)NS(=O)(=O)c1cccc(n1)C(=O)N(C1CC3(CC3)C1)[C@H](CC(C)C)CO2 [Compound 197, (11R)-6-(2,6-Dimethylphenyl)-11-isobutyl-2,2-dioxo-12-spiro[2.3]hexan-5-yl-9-oxa-2λ^6-thia-3,5,12,18-tetrazatricyclo[12.3.1.14,8]nonadeca-1(18),4(19),5,7,14,16-hexaen-13-one], the ring closure, yield after HPLC ([2]; from Cc1cccc(C)c1-c1cc(OC[C@@H](CC(C)C)NC2CC3(CC3)C2)cc(NS(=O)(=O)c2cccc(C(=O)O)n2)n1, HATU/DIEA, 27.1 mM, 2.0 h) was 59%, the “Ent. B Max Activity (%)” value [4] was “+++ (+++ is >60%)” and the EC50 ([4]; read-out: Ent. B EC50) was less than 1000 nM.
